Measurements published in US9018214B2, “Bicyclic heterocycle compounds and their uses in therapy” (Astex Therapeutics Limited, priority 2011, dated 2015).
Where a name gives a salt, the structure may show the parent alone. Read-outs that look alike come from different tables or passages of the source.

Experiments:
[1] = molecular target: BIR3 domain of human XIAP (residues 252-350) (Homo sapiens (Human), UniProt P98170); test: XIAP in vitro competitive displacement binding assay (fluorescence polarization); conditions: for IC50: read-out: IC50 or PI Xiap: IC50; for inhibition at 0.04 µM: 1 h, read-out: IC50 or PI Xiap: PI
[2] = tested on: EVSA-T (human breast carcinoma); test: Anti-proliferative activity, Alamar Blue assay, EVSA-T; assay type: cell-based; conditions: Homo sapiens, EVSA-T, read-out: EVSA-T prolif (EC50)
[3] = molecular target: BIR3 domain of human cIAP-1 (residues 267-363) (Homo sapiens (Human), UniProt Q13490); test: cIAP-1 in vitro competitive displacement binding assay (fluorescence polarization; Probe A AVPIK(5&6FAM)-amide or Probe B AbuRPFK(5&6FAM)-amide); conditions: for inhibition at […] / inhibition at 0.01 µM: 3 h, read-out: IC50 or PI cIAP1: PI
[4] = read-out: IC50 or PI cIAP1: IC50
[5] = Probe B AbuRPFK(5&6FAM)-amide, read-out: IC50 or PI cIAP1: IC50

SMILES	IC50 [1]	IC50 [3]	EC50 ([2]; 72 hours, Alamar Blue)	IC50 [3, 5]	EC50 ([2]; 72 h)	further results
CCC(F)(F)c1cnc2c(c1)N(C(=O)CN1C[C@@H](C)NC[C@@H]1CN1CCOC[C@H]1COC)CC2(C)C [Example 256, 1-[6-(1,1-Difluoropropyl)-3,3-dimethyl-1H,2H,3H-pyrrolo[3,2-b]pyridin-1-yl]-2-[(2R,5R)-2-{[(3R)-3-(methoxymethyl)morpholin-4-yl]methyl}-5-methylpiperazin-1-yl]ethan-1-one dihydrochloride]	0.053 µM	< 1 µM			0.078 µM	IC50 [3, 4]: 0.024 µM
C[C@@H]1CN(CC(=O)N2CC(C)(C)c3cnc(Oc4ccccc4Cl)cc32)[C@@H](Cn2cc(F)cn2)CN1 [Example 177, 1-[6-(2-Chlorophenoxy)-3,3-dimethyl-1H,2H,3H-pyrrolo[3,2-c]pyridin-1-yl]-2-[(2R,5R)-2-[(4-fluoro-1H-pyrazol-1-yl)methyl]-5-methylpiperazin-1-yl]ethan-1-one hydrochloride]	0.049 µM	< 1 µM	0.27 µM	0.018 µM		
COC[C@H]1CN[C@H](C)CN1CC(=O)N1CC(C)(C)c2cnc(C3CCCCC3)cc21 [Example 118, 1-{6-Cyclohexyl-3,3-dimethyl-1H,2H,3H-pyrrolo[3,2-c]pyridin-1-yl}-2-[(2R,5R)-2-(methoxymethyl)-5-methylpiperazin-1-yl]ethan-1-one dihydrochloride]	0.71 µM				3.4 µM	IC50 [3, 4]: 0.24 µM
C[C@@H]1CN(CC(=O)N2CC(C)(C)c3ncc(C(F)(F)CC4CC4)cc32)[C@@H](CN2CCCC2=O)CN1 [Example 230, 1-{[(2R,5R)-1-{2-[6-(2-Cyclopropyl-1,1-difluoroethyl)-3,3-dimethyl-1H,2H,3H-pyrrolo[3,2-b]pyridin-1-yl]-2-oxoethyl}-5-methylpiperazin-2-yl]methyl}pyrrolidin-2-one formate]			0.11 µM			inhibition at 0.04 µM [1]: 53%; inhibition at […] [3]: 60%
C[C@@H]1CN(CC(=O)N2CC(C)(C)c3cnc(C(F)(F)c4ccccc4)cc32)[C@@H](C(=O)N(C)C)CN1 [Example 158, (2R,5R)-1-(2-{6-[Difluoro(phenyl)methyl]-3,3-dimethyl-1H,2H,3H-pyrrolo[3,2-c]pyridin-1-yl}-2-oxoethyl)-N,N,5-trimethylpiperazine-2-carboxamide dihydrochloride]	0.049 µM				0.3 µM	inhibition at 0.01 µM [3]: 51%
CCC(F)(F)c1cc2c(cn1)C(C)(C)CN2C(=O)CN1C[C@@H](C)NC[C@@H]1CN1CC[C@@H](F)C1 [Example 214, 1-[6-(1,1-Difluoropropyl)-3,3-dimethyl-1H,2H,3H-pyrrolo[3,2-c]pyridin-1-yl]-2-[(2R,5R)-2-{[(3R)-3-fluoropyrrolidin-1-yl]methyl]-5-methylpiperazin-1-yl]ethan-1-one hydrochloride]	0.082 µM	< 1 µM	0.19 µM	0.024 µM		
C[C@@H]1CN(CC(=O)N2CC(C)(C)c3ncc(Cc4ccc(F)cc4F)cc32)[C@@H](CN2CC[C@H](F)C2)CN1 [Example 204, 1-{6-[(2,4-Difluorophenyl)methyl]-3,3-dimethyl-1H,2H,3H-pyrrolo[3,2-b]pyridin-1-yl}-2-[(2R,5R)-2-{[(3S)-3-fluoropyrrolidin-1-yl]methyl}-5-methylpiperazin-1-yl]ethan-1-one dihydrochloride]	0.11 µM				0.021 µM	inhibition at […] [3]: 91%
C[C@@H]1CN(CC(=O)N2CC(C)(C)c3cnc(Cc4ccc(F)cc4F)cc32)[C@@H](Cn2ccncc2=O)CN1 [Example 195, 1-{[(2R,5R)-1-(2-{6-[(2,4-Difluorophenyl)methyl]-3,3-dimethyl-1H,2H,3H-pyrrolo[3,2-c]pyridin-1-yl}-2-oxoethyl)-5-methylpiperazin-2-yl]methyl}-1,2-dihydropyrazin-2-one dihydrochloride]	0.067 µM				0.036 µM	inhibition at […] [3]: 96%

Now from value to molecule, other results behind:

IC50 [1]	IC50 [3]	EC50 ([2]; 72 hours, Alamar Blue)	IC50 [3, 5]	SMILES	EC50 ([2]; 72 h)	further results
		4 µM	0.16 µM	C[C@@H]1CN(CC(=O)N2C[C@](C)(c3ccccc3)c3ccc(C#N)cc32)[C@@H](C(=O)N2CCOCC2)CN1 [Example 153, (3R)-3-Methyl-1-{2-[(2R,5R)-5-methyl-2-[(morpholin-4-yl)carbonyl]piperazin-1-yl]acetyl}-3-phenyl-2,3-dihydro-1H-indole-6-carbonitrile]		inhibition at 0.04 µM ([1]; @ 0.04 μM): 54%
0.64 µM		2.4 µM		C[C@@H]1CN(CC(=O)N2CC(C)(C)c3ccc(S(=O)(=O)c4ccccc4)cc32)CCN1 [Example 43, 1-(6-Benzenesulfonyl-3,3-dimethyl-2,3-dihydro-indol-1-yl)-2-((R)-3-methyl-piperazin-1-yl)-ethanone hydrochloride salt]		IC50 ([3]; Probe A AVPIK(5&6FAM)-amide, read-out: IC50 or PI cIAP1: IC50): 0.45 µM
0.058 µM		0.0088 µM		C[C@@H]1CN(CC(=O)N2CC(C)(C)c3cnc(Cc4ccc(F)cc4F)cc32)[C@@H](CN2CCCCC2=O)CN1 [Example 192, 1-{[(2R,5R)-1-(2-{6-[(2,4-Difluorophenyl)methyl]-3,3-dimethyl-1H,2H,3H-pyrrolo[3,2-c]pyridin-1-yl}-2-oxoethyl)-5-methylpiperazin-2-yl]methyl}piperidin-2-one hydrochloride]		inhibition at […] ([3]; Probe B, @ 0.012 μM): 95%
0.11 µM		0.44 µM	0.023 µM	COC[C@H]1CN[C@H](C)CN1CC(=O)N1CC(C)(C)c2cnc(C3=CCCCC3)cc21 [Example 106, 1-[6-(Cyclohex-1-en-1-yl)-3,3-dimethyl-1H,2H,3H-pyrrolo[3,2-c]pyridin-1-yl]-2-[(2R,5R)-2-(methoxymethyl)-5-methylpiperazin-1-yl]ethan-1-one, hydrochloride salt]		
0.067 µM		0.095 µM		C[C@@H]1CN(CC(=O)N2CC(C)(C)c3cnc(Cc4ccccc4)cc32)[C@@H](Cn2cccn2)CN1 [Example 112, 1-(6-Benzyl-3,3-dimethyl-2,3-dihydro-pyrrolo[3,2-c]pyridin-1-yl)-2-((2R,5R)-5-methyl-2-pyrazol-1-ylmethyl-piperazin-1-yl)-ethanone]		inhibition at 0.01 µM ([3]; Probe B, @ 0.01 μM): 69%
		0.004 µM		CCCC(F)(F)c1cc2c(cn1)C(C)(C)CN2C(=O)CN1C[C@@H](C)NC[C@@H]1CN1CCOC[C@H]1C [Example 252, 1-[6-(1,1-Difluorobutyl)-3,3-dimethyl-1H,2H,3H-pyrrolo[3,2-c]pyridin-1-yl]-2-[(2R,5R)-5-methyl-2-{[(3R)-3-methylmorpholin-4-yl]methyl}piperazin-1-yl]ethan-1-one diydrochloride]		inhibition at 0.04 µM ([1]; @ 0.04 μM): 72%; inhibition at […] ([3]; Probe B, @ 0.012 μM): 91%
0.045 µM	< 1 µM	0.27 µM	0.014 µM	C[C@@H]1CN(CC(=O)N2CC(C)(C)c3cnc(C(F)(F)C4CC4)cc32)[C@@H](CN2CCCC2=O)CN1 [Example 212, 1-{[(2R,5R)-1-{2-[6-(Cyclopropyldifluoromethyl)-3,3-dimethyl-1H,2H,3H-pyrrolo[3,2-c]pyridin-1-yl]-2-oxoethyl}-5-methylpiperazin-2-yl]methyl}pyrrolidin-2-one hydrochloride]		
0.046 µM	< 1 µM	0.63 µM	0.022 µM	CC(C)C(F)(F)c1cc2c(cn1)C(C)(C)CN2C(=O)CN1C[C@@H](C)NC[C@@H]1CN1CCCC1=O [Example 211, 1-{[(2R,5R)-1-{2-[6-(1,1-Difluoro-2-methylpropyl)-3,3-dimethyl-1H,2H,3H-pyrrolo[3,2-c]pyridin-1-yl]-2-oxoethyl}-5-methylpiperazin-2-yl]methyl}pyrrolidin-2-one hydrochloride]		
